# From paper PMC6514962, “The Impact of O-Glycosylation on Cyanidin Interaction with RBCs and HMEC-1 Cells—Structure–Activity Relationships” (International Journal of Molecular Sciences, 2019)
# How the values were obtained:
# [1] = tested on: erythrocytes (RBCs); experiment: protection of erythrocytes against AAPH-induced hemolysis; type: cell-based, pig; conditions: compared with CR and CDG
# Protocol: Upon removal from plasma, the erythrocytes (RBCs) were washed four times in phosphate solution (pH 7.4) and then incubated in the same solution, but containing appropriate amounts of the compounds studied. The modification was conducted at 37 °C for 1 h, each 1 mL sample containing an RBC suspension of 1.2% hematocrit and 1 to 100 µM of compounds, stirred continuously. After the modification, 2 mL of phosphate buffer were added and samples were centrifuged, and the supernatant assayed for hemoglobin content using a spectrophotometer (Specord 40, Analytik Jena) at the 540 nm wavelength. To test the effect of compounds on hemolysis inducted by AAPH, RBCs were pre-incubated with varying concentrations of compounds at 37 °C for 1 h. Hemolysis of RBCs was carried out by mixing 3% suspension of RBCs (unmodified or modified by 2 to 20 µM of the compounds) in phosphate buffer with AAPH solution (final concentration 120 mM). This reaction mixture was incubated for 3 h at 37 °C. After incubation, samples were centrifuged for 15 min (2000× g, RT). The extent of hemolysis was determined spectrophotometrically by measuring the absorbance of the supernatant at 540 nm. Hemoglobin concentration in the supernatant, expressed as a percentage of the hemoglobin concentration in the supernatant of totally hemolyzed cells, was assumed as the measure of the extent of hemolysis.
# [2] = tested on: MCF-7, HuH-7, HepG2, Caco-2, and HUVEC; design: method as in doi:10.3136/fstr.17.515; conditions: cited from earlier work
# [3] = design: method as in doi:10.1007/s10068-014-0279-x; conditions: cited from earlier work
# [4] = tested on: HMEC-1 cells; experiment: AAPH-stimulated intracellular ROS generation, H2DCF-DA assay; type: cell-based, human; conditions: HMEC-1 pretreated 24 h with 50 to 75 µM, then AAPH 24 h
# Protocol: (§1) The impact of investigated compounds on the level of intracellular reactive oxygen species and their ability to inhibit AAPH-stimulated intracellular ROS generation were assessed using a H2DCF-DA probe. Non-fluorescent H2DCF-DA is hydrolyzed intracellularly to form 2′,7′-dichlorodihydrofluorescein, which is oxidized by reactive oxygen species to the fluorescent 2′,7′-dichlorofluorescein. ROS production was estimated in HMEC-1 cells seeded on 96-well plates (5 × 10^3/well) and cultured for 12 to 24 h. After that time, the compounds were added at appropriate concentrations. The incubation was continued for another 24 h and 48 h at 37 °C under 5% CO2. In the case of AAPH-simulated ROS generation, the cells were incubated with extracts for 24 h. After incubation, the AAPH dissolved in culture medium was added to each well at the final concentration of 7.5 mM and incubated for the next 24 h. After that time, the cell monolayers were rinsed with HBSS containing 1% albumin and 5 µM of the fluorescence probe, 2′,7′-dichlorodihydrofluorescein diacetate (H2DCF-DA), was added. Immediately and after 0.5 h, 1 h, and 2 h incubation in the dark in standard conditions, the fluorescence was measured at λex = 485 nm and λem = 538 nm.
# (§2) In the next step, DNA content was determined. For this purpose, after measurements, the cells were frozen at −70 °C. Next, the cells were thawed and re-frozen after the addition of […] of distilled water/well. Then, the cells were thawed again. After that, 5 µM of RNase was added to each well and incubated for 30 min in the dark at 37 °C. Next, 50 µL of 2.5 µM propidium iodide was added to the cells and incubated for 5 min in the same conditions. The fluorescence intensity of PI was measured at λex = 355 nm and λem = 620 nm. The rate of ROS generation was calculated according to the formula: (1) Rate of ROS=IFe1/IFe2/IFc1/IFc2⋅100% where IFe1 and IFe2 are fluorescence intensities of H2DCF-DA and PI in compound-modified or compound-modified and AAPH-oxidized cells, and IFc1 and IFc2 are fluorescence intensities of H2DCF-DA and PI in control or AAPH-oxidized control cells.
# [5] = tested on: HMEC-1 cells; experiment: viability of HMEC-1 cells, XTT and Hoechst 33342 assays; type: cell-based, human; conditions: HMEC-1, 10-100 µM, 48 h
# Protocol: The effect of compounds on the viability of HMEC-1 cells was assessed by XTT (2,3-bis-(2-methoxy-4-nitro-5-sulfophenyl)-2H-tetrazolium-5-carboxanilide) and Hoechst 33342 assays. Briefly, 5 × 10^3 cells in 100 µL of the appropriate growth medium were plated in 96-well flat bottom clear microplates and cultured for 24 h at 37 °C in a humidified 5% CO2 incubator to ensure their logarithmic growth. […] A corresponding volume of 0.5% ethanol was added to the control wells. In parallel experiments, some of the cells were additionally incubated with doxorubicin in a concentration of 0.5 µM (a cytotoxic compound usually used as an anticancer drug). After incubation, the medium in the wells was aspirated, the cell monolayers were rinsed twice with pre-warmed (37 °C) PBS, and the cells were allowed to grow for an additional 48 h. After incubation, during the XTT assay, medium was removed by aspiration and 50 µL of XTT/PMS solution (10 µL of 10 mM PMS + 4 mL of 4 mg/mL XTT solution) was added to cells. Cells were incubated in the dark for 2 h (37 °C, 5% CO2). After incubation, the absorbance of the samples was read at 450 nm and 690 nm using an Epoch Microplate Spectrophotometer, BioTek Instruments, Inc., Winooski, Vermont, USA. The fraction of surviving treated cells was presented as a percentage of viable control (untreated) cells taken as 100%. In the Hoechst test, after incubation of cells with cyanidin and its glycosides, the medium was removed and the cells were washed twice with HBSS buffer containing 1% bovine serum albumin and frozen at −70 °C. Next, the cells were thawed at room temperature (RT) and re-frozen after the addition of […] of distilled water. After thawing the plates at room temperature, 100 µL of HVAB solution (0.5% Hoechst in TNE solution containing 2 M NaCl, 1 mM EDTA, 10 mM Tris-HCl, pH 7.4) were added to each well. Next, cells were incubated for 15 min in the dark at 37 °C, mixed, and the fluorescence intensity of the probe was measured at 355 and 460 nm for excitation and emission, respectively (Fluoroskan Ascent FL, Thermo Scientific, Waltham, MA, USA). Cell viability was calculated as the ratio of the fluorescence intensity of the Hoechst 33342 probe for compound-modified to -unmodified cells and expressed as a percentage.
# [6] = tested on: macrophages; design: method as in doi:10.1007/s10068-014-0279-x; conditions: cited from earlier work
# [7] = tested on: HMEC-1 cells; experiment: intracellular ROS generation in non-oxidized cells, H2DCF-DA assay; type: cell-based, human
# Protocol: as §1, §2
# [8] = tested on: HER2 (breast cancer), GBM (glioblastoma), and human monocytic leukemia; design: method as in PMID 15080622, PMID 24312561, PMID 28867321; conditions: cancer cells, interrupting the G2-M phase; cited from earlier work
# [9] = tested on: RAW 264.7 cells; design: method as in doi:10.1007/s10068-014-0279-x; conditions: 100 to 200 µg/mL; cited from earlier work
structure (smiles),measurement,setting,value
"OCC1OC(Oc2cc3c(O)cc(O)cc3[o+]c2-c2ccc(O)c(O)c2)C(O)C(O)C1O (stereo not shown) [CG, cyanidin-3-O-glucoside]",level of RBCs' protection relative to CR and CDG,[1],better protection
same,intracellular ROS levels,[2],did not
same,nitrite scavenging activity compared with CR,[3],higher
same,intracellular ROS level in comparison with control AAPH-oxidized cells,[4],significant decrease
same,cytotoxicity,[5],no cytotoxicity
same,protective effect against H2O2-induced cytotoxicity compared with CR,[6],stronger protective effect
same,intracellular ROS level compared with control cells,"[7]; HMEC-1, 24 h, 50-100 µM",significant decrease
same,intracellular ROS level compared with control cells,"[7]; HMEC-1, 48 h, 100 µM",no significant difference
same,cytotoxic effect (apoptosis),[8],inducing apoptosis
same,cell viability compared with control cells,[9],significantly decreased
